# Measured values from patent US9708268B2, “ROR modulators and their uses” (INNOV17 LLC, priority 2012, dated 2017).
# pIC50: −log10 of the molar value.
# Columns and labels:
# FOXP3 = experiment: Real-time qRT-PCR gene expression in TH17 cells (FOXP3); format: cell-based, human; parameters: key: A: No change in gene expression observed relative to DMSO treated TH17 cells; B: Decreased gene expression observed relative to DMSO treated TH17 cells; C: Increased gene expression observed relative to DMSO treated TH17 cells; conditions: mRNA
# Experimental: (§1) Peripheral blood mononuclear cells (PBMCs) were sourced from freshly prepared leukocyte enriched plasma (buffy coat) from healthy volunteers from which PBMCs were isolated by density gradient centrifugation using Ficoll-Paque™ PLUS (GE Healthcare). Naïve CD4+ T cells were isolated using the Naïve CD4+ T cell Isolation Kit II (Miltenyi Biotec) as per manufacturer's instructions. CD4+ T cells were plated at 5×10^4 cells/well in 96 well plates pre-coated with immobilized human (h)-αCD3 antibody (eBioscience) then differentiated to TH17 cells using h-αCD28, h-αIFN-γ, h-αIL-4, h-IL-6, h-IL-23, […], h-TGF-β1 (eBioscience) and maintained in a cell culture incubator at 37° C. with 5% CO2 in TexMACS Medium (Miltenyi Biotec) supplemented with 1% Penicillin/Streptomycin (Lonza) over 5 days.
# (§2) RNA was isolated from TH17 cells and cDNA was synthesized using the Verso cDNA kit (Thermo Scientific) as per manufacturer's instructions. IL-17A, IL-17F, IL-21, IL-22, G-CSF, IL-23R and FOXP3 gene expression were determined for compound treated and untreated TH17 cell samples using Solaris qPCR Gene expression assays (Thermo Scientific) with an iCycler iQ Real-Time PCR Detection System (Bio-Rad). Individual gene expression was normalized to a panel of six reference genes (ACTB, TBP, HPRT1, PGK1, TFRC and PPIA) (Thermo Scientific) and analyzed by REST 2009 (Qiagen) in accordance to MIQE guidelines (Bustin, et al. (2009) Clin. Chem. 55, 611-622), which is hereby incorporated by reference in its entirety). The effects of compounds on TH17 cytokine mRNA levels are presented as fold change in gene expression of compound treated TH17 cells relative to DMSO treated cells in the table below.
# IL-22 [1] = experiment: TH17 cytokine inhibition as measured by ELISA (IL-22); format: cell-based; conditions: 120 h; human CD4+ T cells differentiated to TH17 over 5 days, supernatant ELISA, vs DMSO
# Experimental: as §1
# (§3) Human CD4+ T cells were differentiated to TH17 cells as described in the presence or absence of various concentrations of compounds in a final concentration of 0.1% DMSO in TexMACS medium. Supernatants were collected and stored at −20° C. until they were to be assayed for IL-17A, IL-17F, IL-17AF, IL-21 and/or IL-22 levels as determined by Ready-Set-Go ELISA kits (eBioscience) as per manufacturer's instructions. Endpoint absorbance was read at 450 nm and 570 nm according to manufacturer's instructions (eBioscience) using a microplate reader (Perkin Elmer). The percentage of cytokine inhibition was calculated with reference to DMSO treated cells and the IC50s were determined by GraphPad Prism software and presented in the table below.
# IL-21 = experiment: Real-time qRT-PCR gene expression in TH17 cells (IL-21); format: cell-based, human; parameters: key: A: No change in gene expression observed relative to DMSO treated TH17 cells; B: Decreased gene expression observed relative to DMSO treated TH17 cells; C: Increased gene expression observed relative to DMSO treated TH17 cells; conditions: mRNA
# Experimental: as §1, §2
# IL-17A [2] = experiment: TH17 cytokine inhibition as measured by ELISA (IL-17A); format: cell-based; conditions: 120 h; human CD4+ T cells differentiated to TH17 over 5 days, supernatant ELISA, vs DMSO
# Experimental: as §1, §3
# IL-17AF = experiment: TH17 cytokine inhibition as measured by ELISA (IL-17AF); format: cell-based; conditions: 120 h; human CD4+ T cells differentiated to TH17 over 5 days, supernatant ELISA, vs DMSO
# Experimental: as §1, §3
# IL-22 [3] = experiment: Real-time qRT-PCR gene expression in TH17 cells (IL-22); format: cell-based, human; parameters: key: A: No change in gene expression observed relative to DMSO treated TH17 cells; B: Decreased gene expression observed relative to DMSO treated TH17 cells; C: Increased gene expression observed relative to DMSO treated TH17 cells; conditions: mRNA
# Experimental: as §1, §2
# IL-17A [4] = experiment: Real-time qRT-PCR gene expression in TH17 cells (IL-17A); format: cell-based, human; parameters: key: A: No change in gene expression observed relative to DMSO treated TH17 cells; B: Decreased gene expression observed relative to DMSO treated TH17 cells; C: Increased gene expression observed relative to DMSO treated TH17 cells; conditions: mRNA
# Experimental: as §1, §2
# TH17 cells = experiment: TH17 cellular proliferation (Prestoblue); format: cell-based, human; conditions: 3 μM compound, after 5 day TH17 differentiation, relative to DMSO treated cells
# Experimental: as §1
# Cellular proliferation was assessed in the presence or absence of 3 μM compound using Prestoblue® Cell Viability Reagent (Life Technologies) as per manufacturer's instructions using absorbance as the output measured by a microplate reader (Perkin Elmer) after 30 minutes of incubation of cells and reagent. A standard curve developed by plotting varying cell numbers versus absorbance was used to assess differences in cellular proliferation between compound treated or untreated cells after the 5 day TH17 differentiation period.
# [5] = TH17 cell viability (Prestoblue); format: cell-based; parameters: concentration or dose not given beside the values; conditions: human; percentage of DMSO treated cells; read-out: % viability of compound treated TH17 cells
# Experimental: as §1
# Cells were assayed for viability in the presence or absence of compound using Prestoblue® Cell Viability Reagent (Life Technologies) as per manufacturer's instructions after 30 minutes incubation of TH17 cells with reagent. Absorbance was measured at 570 nm and 600 nm using a microplate reader (Perkin Elmer) and data were analyzed as per manufacturer's instructions. Cell viability was expressed as a percentage of DMSO treated cells.
# IL-17F [6] = experiment: TH17 cytokine inhibition as measured by ELISA (IL-17F); format: cell-based; conditions: 120 h; human CD4+ T cells differentiated to TH17 over 5 days, supernatant ELISA, vs DMSO
# Experimental: as §1, §3
# IL-17F [7] = experiment: Real-time qRT-PCR gene expression in TH17 cells (IL-17F); format: cell-based, human; parameters: key: A: No change in gene expression observed relative to DMSO treated TH17 cells; B: Decreased gene expression observed relative to DMSO treated TH17 cells; C: Increased gene expression observed relative to DMSO treated TH17 cells; conditions: mRNA
# Experimental: as §1, §2
# IL-23R = experiment: Real-time qRT-PCR gene expression in TH17 cells (IL-23R); format: cell-based, human; parameters: key: A: No change in gene expression observed relative to DMSO treated TH17 cells; B: Decreased gene expression observed relative to DMSO treated TH17 cells; C: Increased gene expression observed relative to DMSO treated TH17 cells; conditions: mRNA
# Experimental: as §1, §2
# human RORγ LBD = human RORγ LBD (Homo sapiens (Human), UniProt P51449); experiment: RORγ LBD binding (Human RORγ Assay System, INDIGO Biosciences)
# Experimental: Compound binding to the human RORγ LBD was assessed using the Human RORγ Assay System (INDIGO Biosciences Inc.) as per manufacturer's instructions.
# Chain of human RORγ LBD (P51449 269-508): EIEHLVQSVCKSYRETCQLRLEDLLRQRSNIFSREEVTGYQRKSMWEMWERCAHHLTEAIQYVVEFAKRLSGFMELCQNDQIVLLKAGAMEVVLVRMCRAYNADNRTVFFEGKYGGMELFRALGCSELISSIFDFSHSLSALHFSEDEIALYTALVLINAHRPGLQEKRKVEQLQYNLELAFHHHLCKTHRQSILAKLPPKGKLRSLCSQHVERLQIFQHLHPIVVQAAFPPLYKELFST
Structure (SMILES),pIC50 (IL-22 [1]),pIC50 (IL-17A [2]),pIC50 (IL-17AF),pIC50 (IL-17F [6]),pIC50 (human RORγ LBD),"Change in gene expression of compound treated TH17 cells relative to DMSO treated cells, FOXP3 (FOXP3)","Change in gene expression of compound treated TH17 cells relative to DMSO treated cells, IL-21 (IL-21)","Change in gene expression of compound treated TH17 cells relative to DMSO treated cells, IL-22 (IL-22 [3])","Change in gene expression of compound treated TH17 cells relative to DMSO treated cells, IL-17A (IL-17A [4])",% change in TH17 cell number (TH17 cells),viability [5] [%],"Change in gene expression of compound treated TH17 cells relative to DMSO treated cells, IL-17F (IL-17F [7])","Change in gene expression of compound treated TH17 cells relative to DMSO treated cells, IL-23R (IL-23R)"
"NC(=O)c1ccc2c(c1)CCC(=O)N2Cc1ccc(C(O)(C(F)(F)F)C(F)(F)F)cc1 [Example 5, 1-(4-(1,1,1,3,3,3-hexafluoro-2-hydroxypropan-2-yl)benzyl)-2-oxo-1,2,3,4-tetrahydroquinoline-6-carboxamide]",,< 5.00,< 5.00,< 5.00,,,,,,,> 80,,
"CNC(=O)c1ccc2c(c1)CCC(=O)N2Cc1ccc(C(O)(C(F)(F)F)C(F)(F)F)cc1 [Example 6, 1-(4-(1,1,1,3,3,3-hexafluoro-2-hydroxypropan-2-yl)benzyl)-N-methyl-2-oxo-1,2,3,4-tetrahydroquinoline-6-carboxamide]",,< 5.00,> 5.00,< 5.00,< 5.00,,,,,,> 80,,
"CNC(=O)c1ccc2c(ccc(=O)n2Cc2ccc(C(O)(C(F)(F)F)C(F)(F)F)cc2)c1 [Example 9, 1-(4-(1,1,1,3,3,3-hexafluoro-2-hydroxypropan-2-yl)benzyl)-N-methyl-2-oxo-1,2-dihydroquinoline-6-carboxamide]",< 5.00,< 5.00,,< 5.00,,A,B,B,B,B (≦50% decrease in cell proliferation relative to DMSO treated TH17 cells),> 80,B,A
"CN(C)C(=O)c1ccc2c(c1)CCN2Cc1ccc(C(O)(C(F)(F)F)C(F)(F)F)cc1 [Example 13, 1-(4-(1,1,1,3,3,3-hexafluoro-2-hydroxypropan-2-yl)benzyl)-N,N-dimethylindoline-5-carboxamide]",> 5.00,> 5.00,,> 5.00,,,,,,B (≦50% decrease in cell proliferation relative to DMSO treated TH17 cells),> 80,,

# Now from value to molecule, other results behind:
pIC50 (IL-22 [1]),pIC50 (IL-17A [2]),pIC50 (IL-17AF),pIC50 (IL-17F [6]),pIC50 (human RORγ LBD),Structure (SMILES),"Change in gene expression of compound treated TH17 cells relative to DMSO treated cells, FOXP3 (FOXP3)","Change in gene expression of compound treated TH17 cells relative to DMSO treated cells, IL-21 (IL-21)","Change in gene expression of compound treated TH17 cells relative to DMSO treated cells, IL-22 (IL-22 [3])","Change in gene expression of compound treated TH17 cells relative to DMSO treated cells, IL-17A (IL-17A [4])",% change in TH17 cell number (TH17 cells),viability [5] [%],"Change in gene expression of compound treated TH17 cells relative to DMSO treated cells, IL-17F (IL-17F [7])","Change in gene expression of compound treated TH17 cells relative to DMSO treated cells, IL-23R (IL-23R)"
> 5.00,> 5.00,> 5.00,> 5.00,,"NC(=O)c1ccc2c(c1)CCCN2Cc1ccc(C(O)(C(F)(F)F)C(F)(F)F)cc1 [Example 2, 1-(4-(1,1,1,3,3,3-hexafluoro-2-hydroxypropan-2-yl)benzyl)-1,2,3,4-tetrahydroquinoline-6-carboxamide]",A,A,A,A,B (≦50% decrease in cell proliferation relative to DMSO treated TH17 cells),> 80,A,A
,> 5.00,< 5.00,> 5.00,,"CN(C)C(=O)c1ccc2c(c1)CCC(=O)N2Cc1ccc(C(O)(C(F)(F)F)C(F)(F)F)cc1 [Example 7, 1-(4-(1,1,1,3,3,3-hexafluoro-2-hydroxypropan-2-yl)benzyl)-N,N-dimethyl-2-oxo-1,2,3,4-tetrahydroquinoline-6-carboxamide]",,,,,,> 80,,
< 5.00,> 5.00,,> 5.00,,"NC(=O)c1ccc2c(ccc(=O)n2Cc2ccc(C(O)(C(F)(F)F)C(F)(F)F)cc2)c1 [Example 8, 1-(4-(1,1,1,3,3,3-hexafluoro-2-hydroxypropan-2-yl)benzyl)-2-oxo-1,2-dihydroquinoline-6-carboxamide]",A,A,C,A,B (≦50% decrease in cell proliferation relative to DMSO treated TH17 cells),> 80,B,A
< 5.00,> 5.00,,< 5.00,,"CN(C)C(=O)c1ccc2c(ccc(=O)n2Cc2ccc(C(O)(C(F)(F)F)C(F)(F)F)cc2)c1 [Example 10, 1-(4-(1,1,1,3,3,3-hexafluoro-2-hydroxypropan-2-yl)benzyl)-N,N-dimethyl-2-oxo-1,2-dihydroquinoline-6-carboxamide]",A,A,A,A,B (≦50% decrease in cell proliferation relative to DMSO treated TH17 cells),> 80,A,A
> 5.00,> 5.00,,> 5.00,,"NC(=O)c1ccc2c(c1)CCN2Cc1ccc(C(O)(C(F)(F)F)C(F)(F)F)cc1 [Example 11, 1-(4-(1,1,1,3,3,3-hexafluoro-2-hydroxypropan-2-yl)benzyl)indoline-5-carboxamide]",,,,,B (≦50% decrease in cell proliferation relative to DMSO treated TH17 cells),> 80,,
< 5.00,> 5.00,,> 5.00,,"CNC(=O)c1ccc2c(c1)CCN2Cc1ccc(C(O)(C(F)(F)F)C(F)(F)F)cc1 [Example 12, 1-(4-(1,1,1,3,3,3-hexafluoro-2-hydroxypropan-2-yl)benzyl)-N-methylindoline-5-carboxamide]",,,,,B (≦50% decrease in cell proliferation relative to DMSO treated TH17 cells),> 80,,
